Experimental data taken from patent publication US20150272939A1, “Identification of Small Molecule Inhibitors of Jumonji AT-Rich Interactive Domain 1A (JARID1A) and 1B (JARID1B) Histone Demethylase” (Yale University, priority 2012, published 2015).
Counter-ions that a name gives are not always drawn. Like-named read-outs stand apart in the source and are kept apart here.

How the values were obtained:
JARID1B = molecular target: T1, JARID1B (Homo sapiens, UniProt Q9UGL1); test: FLAG-JARID1B histone demethylase assay with AlphaScreen detection (HTS and dose response); format: biochemical; details: for Assay − Artifact Signal (percent): assay signal minus artifact signal; for inhibition at 20 µM: read-out: Inhibitory effect (percent); for Assay Signal (percent): effect of compound in JARID1B AlphaScreen assay;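 on Assay Signal (percent): compound tested at 20 µM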;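 on Assay − Artifact Signal (percent): compound tested at 20 µM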;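 on all read-outs here: FLAG-tagged JARID1B at 4 nM acting on a biotinylated H3K4me3 peptide, demethylation read by AlphaScreen luminescence, with hits checked against bio-H3K4me2 without enzyme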
T1 construct: The FLAG tagged full length JARID1B enzyme was expressed in Sf21 insect cells using FLAG-JARID1B baculoviruses; FLAG (N); made in house; host or cells: Sf21 insect cells (baculovirus)

[1] = AlphaScreen counterscreen against bio-H3K4me2 peptide in the absence of enzyme (artifact signal); details: for Artifact Signal (percent): effect of the compound when incubated with bio-H3K4me2 peptide (counterscreen, no enzyme); for Artifact signal: effect of the compound when it is incubated with bio-H3K4me2 peptide: counterscreen, no enzyme;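 on all read-outs here: counterscreen run without enzyme against bio-H3K4me2 peptide to remove false positive hits from the JARID1 demethylase AlphaScreen screen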
[2] = high-throughput screen, compound 20 μM, standard demethylase conditions (10 μM α-KG, 50 μM Fe (II))
[3] = validation of HTS actives, total signal before subtraction of artifact signal
[4] = high-throughput screen, compound 20 μM, IDs marked *: additional hits under reaction condition with 1 mM α-KG

T1 sequence (Q9UGL1 whole entry): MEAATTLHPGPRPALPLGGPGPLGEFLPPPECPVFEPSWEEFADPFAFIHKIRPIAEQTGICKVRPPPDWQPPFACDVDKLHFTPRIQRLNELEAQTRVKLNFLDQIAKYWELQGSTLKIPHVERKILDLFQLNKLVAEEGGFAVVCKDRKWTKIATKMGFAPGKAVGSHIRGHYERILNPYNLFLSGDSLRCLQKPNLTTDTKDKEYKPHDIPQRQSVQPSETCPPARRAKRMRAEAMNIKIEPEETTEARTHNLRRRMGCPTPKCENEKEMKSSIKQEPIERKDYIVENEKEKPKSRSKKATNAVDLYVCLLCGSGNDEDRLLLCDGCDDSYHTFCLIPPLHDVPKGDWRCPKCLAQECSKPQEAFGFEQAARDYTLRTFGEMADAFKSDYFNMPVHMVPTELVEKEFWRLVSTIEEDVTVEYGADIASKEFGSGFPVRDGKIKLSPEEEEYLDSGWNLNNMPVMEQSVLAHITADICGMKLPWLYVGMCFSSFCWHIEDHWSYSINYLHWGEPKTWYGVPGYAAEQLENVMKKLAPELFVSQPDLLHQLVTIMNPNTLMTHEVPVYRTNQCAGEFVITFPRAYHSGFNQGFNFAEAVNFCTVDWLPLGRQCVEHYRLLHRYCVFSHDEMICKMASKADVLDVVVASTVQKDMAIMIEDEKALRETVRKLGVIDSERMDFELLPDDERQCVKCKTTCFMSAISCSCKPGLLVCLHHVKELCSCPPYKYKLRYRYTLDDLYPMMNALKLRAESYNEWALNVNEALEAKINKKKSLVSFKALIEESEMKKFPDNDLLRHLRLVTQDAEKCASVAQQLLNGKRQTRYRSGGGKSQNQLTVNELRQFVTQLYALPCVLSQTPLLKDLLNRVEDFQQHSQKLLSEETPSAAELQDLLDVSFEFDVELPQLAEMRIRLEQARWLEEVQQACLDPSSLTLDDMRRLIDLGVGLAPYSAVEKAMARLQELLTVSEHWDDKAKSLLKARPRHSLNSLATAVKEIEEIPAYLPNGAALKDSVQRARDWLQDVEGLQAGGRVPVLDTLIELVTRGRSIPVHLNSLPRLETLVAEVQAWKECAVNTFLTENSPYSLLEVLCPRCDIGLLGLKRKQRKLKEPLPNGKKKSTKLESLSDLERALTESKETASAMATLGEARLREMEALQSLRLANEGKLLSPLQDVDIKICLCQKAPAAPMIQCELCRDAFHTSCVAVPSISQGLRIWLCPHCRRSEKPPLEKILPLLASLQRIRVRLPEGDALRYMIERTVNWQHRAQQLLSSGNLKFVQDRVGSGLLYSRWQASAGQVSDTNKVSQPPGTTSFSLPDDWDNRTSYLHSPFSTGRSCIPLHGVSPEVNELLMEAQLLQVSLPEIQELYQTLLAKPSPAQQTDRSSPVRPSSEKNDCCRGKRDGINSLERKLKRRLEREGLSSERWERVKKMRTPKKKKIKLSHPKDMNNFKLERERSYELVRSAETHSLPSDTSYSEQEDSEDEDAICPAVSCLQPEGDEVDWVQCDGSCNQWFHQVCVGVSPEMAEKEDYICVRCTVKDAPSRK

Row | SMILES | Assay − Artifact Signal (percent) (JARID1B) | inhibition at 20 µM (JARID1B; [2]) | Assay Signal (percent) (JARID1B; validation of HTS actives) | Artifact Signal (percent) [1] | also measured
1 | O=[N+]([O-])c1cc(O)c(O)c([N+](=O)[O-])c1 [YU034463, 3,5-DINITROCATECHOL, reference compound] | 27.05% |  | 38.78% | 11.72% | Inhibitory effect (percent) (JARID1B; [2]): 49.87%
2 | C[n+]1cc2c3c(ccc2c2ccc4cc5c(cc4c21)OCO5)OCO3.O=S(=O)([O-])O [YU155443, SANGUINARINE SULFATE, reference compound] | 17.36% |  | 5.51% | −11.85% | Inhibitory effect (percent) (JARID1B; [2]): 62.80%
3 | O=C(NCc1ccccc1)c1ccc(N2CCCC2)c([N+](=O)[O-])c1 [YU153074] | 11.37% | 102% | 16.52% | 5.15% | 
4 | CC(C)(C#N)O[C@@H]1O[C@H](CO)[C@@H](O)[C@H](O)[C@H]1O [YU155312, LINAMARIN, reference compound] | 99.23% | 60.3% | 92.68% | −6.55% | 
5 | Cc1cc(-c2ccc(NC(=O)CCC(=O)O)c(C)c2)ccc1NC(=O)CCC(=O)O [YU104987] |  | 55.2% |  |  | Validation result of HTS active: effect of the compound in the JARID1B AlphaScreen demethylase assay (JARID1B; [3]): 7.41; Artifact signal: effect of the compound when it is incubated with bio-H3K4me2 peptide [1]: 3.17
6 | CC[C@]1(O)C[C@H]2CN(CCc3c([nH]c4ccccc34)[C@@](C(=O)OC)(c3cc4c(cc3OC)N(C=O)[C@H]3[C@@](O)(C(=O)OC)[C@H](OC(C)=O)[C@]5(CC)C=CCN6CC[C@]43[C@@H]65)C2)C1.O=S(=O)(O)O [YU221071, VINCRISTINE SULFATE, reference compound] |  |  |  |  | Inhibitory effect (percent) (JARID1B): 44.20%; Validation effect minus artifact signal (JARID1B): 1.86; Validation result of HTS active: effect of the compound in the JARID1B AlphaScreen demethylase assay (JARID1B): 0.59; Artifact signal: effect of the compound when it is incubated with bio-H3K4me2 peptide [1]: −1.27
7 | CCN(CC)CCOc1ccc(/C(=C(\Cl)c2ccccc2)c2ccccc2)cc1 [YU033752, CLOMIPHENE CITRATE, reference compound] | 15.81% | 47% | 16.67% | 0.86% | 
8 | O=c1c(O)c(-c2ccc(O)c(O)c2)oc2c(O)c(O)cc(O)c12 [YU155360, GOSSYPETIN, reference compound] | 18.96% | 103% | 100.77% | 81.81% | 
9 | CCCN1CCN(C(=O)c2ccncc2)CC1 [YU145702] | 45.86% | 35.9% | 44.33% | −1.53% | 
10 | NNC(=O)c1ccncc1.Nc1ccc(C(=O)O)c(O)c1 [YU034557, PASINIAZID, reference compound] | 42.63% |  | 44.38% | 1.76% | Inhibitory effect (percent) (JARID1B; [2]): 46.37%
11 | Cc1ccc([N+](=O)[O-])cc1N(CC(=O)Nc1ccc(Cl)c(C(F)(F)F)c1)S(C)(=O)=O [YU121632] |  | 59.2% |  |  | Validation result of HTS active: effect of the compound in the JARID1B AlphaScreen demethylase assay (JARID1B; [3]): 2.95; Artifact signal: effect of the compound when it is incubated with bio-H3K4me2 peptide [1]: −1.84
12 | CN(C)C(=S)SSC(=S)N(C)C [YU034426, THIRAM, reference compound] | 59.23% | 64.2% | 66.73% | 7.49% | 
13 | Oc1cc2c(cc1O)C1c3ccc(O)c(O)c3OCC1(O)C2 (stereo not drawn) [YU155005, HAEMATOXYLIN, reference compound] | 64.59% | 101% | 98.90% | 34.32% | 

More lines, main results first:

Row | Assay − Artifact Signal (percent) (JARID1B) | inhibition at 20 µM (JARID1B; [2]) | Assay Signal (percent) (JARID1B; validation of HTS actives) | Artifact Signal (percent) [1] | SMILES | also measured
14 | 38.83% | 75.9% | 49.97% | 11.14% | C=C[C@@H](C1=CC(=O)C(OC)=C(OC)C1=O)c1ccccc1 [YU155075, 3,4-DIMETHOXY- DALBERGIONE, reference compound] | 
15 |  | 44% |  |  | Cn1cc(C2=C(c3cn(CCCSC(=N)N)c4ccccc34)C(=O)NC2=O)c2ccccc21 [YU154853, Ro 31-8220, reference compound] | Validation result of HTS active: effect of the compound in the JARID1B AlphaScreen demethylase assay (JARID1B; [3]): 41.07; Artifact signal: effect of the compound when it is incubated with bio-H3K4me2 peptide [1]: 38.79
16 | 8.09% | 31.8% | 6.16% | −1.93% | CC(NC(=S)Nc1ccc2c(c1)OCO2)c1ccncc1 (stereo not drawn) [YU150371] | 
17 | 11.28% | 60.1% | 5.25% | −6.03% | Cc1ccc(C)c(NS(=O)(=O)c2ccc3[nH]c(=O)oc3c2)c1 [YU152226] | 
18 |  | 40% |  |  | Cc1ccc(NC(c2cccnc2)c2ccc3cccnc3c2O)cc1C (stereo not drawn) [YU172173] | Validation result of HTS active: effect of the compound in the JARID1B AlphaScreen demethylase assay (JARID1B; [3]): 44.79; Artifact signal: effect of the compound when it is incubated with bio-H3K4me2 peptide [1]: 37.31
19 | 27.17% |  | 18.58% | −8.59% | Cc1cc(C)nc(N(C#N)C(=S)N(C)C)n1 [YU145653] | 
20 | 23.33% | 58.7% | 30.40% | 7.07% | O=C1C=CC(=O)[C@@H](Br)[C@@H]1Br [YU221139] | 
21 |  | 97.5% |  |  | O=C(O)c1cc(O)c(=O)c2c(O)c(O)c(O)cc2c1 [YU155193, PURPUROGALLIN-4- CARBOXYLIC ACID, reference compound] | Validation result of HTS active: effect of the compound in the JARID1B AlphaScreen demethylase assay (JARID1B; [3]): −1.37; Artifact signal: effect of the compound when it is incubated with bio-H3K4me2 peptide [1]: −3.21
22 | 13.30% |  | 22.65% | 9.35% | O=C1c2c(O)cccc2Cc2cccc(O)c21 [YU033694, ANTHRALIN, reference compound] | inhibition at 20 µM (JARID1B; [4]): 51.7%
23 |  | 93.2% |  |  | COc1ccccc1OCC(O)COC(N)=O (stereo not drawn) [YU033898, METHOCARBAMOL, reference compound] | Validation result of HTS active: effect of the compound in the JARID1B AlphaScreen demethylase assay (JARID1B; [3]): 0.74; Artifact signal: effect of the compound when it is incubated with bio-H3K4me2 peptide [1]: 18.66
24 | 36.52% |  | 36.89% | 0.37% | Nc1nc2nc[nH]c2c(=S)[nH]1 [YU034024, THIOGUANINE, reference compound] | inhibition at 20 µM (JARID1B; [4]): 52.2%
25 | 22.61% | 44.6% | 62.72% | 40.11% | N#CC(=CC=Cc1ccco1)C(N)=S (single isomer, unassigned) [YU144893] | 
26 | 9.49% | 44.6% | 16.16% | 6.66% | Cc1ccc(C(=O)Nc2nnc(-c3ccncc3)s2)o1 [YU148889] | 
27 | 99.03% | 90.8% | 93.75% | −5.27% | N#CC(=Cc1ccncc1)c1nc2cc(C(F)(F)F)ccc2s1 (single isomer, unassigned) [YU153803] | 
28 |  | 38.9% |  |  | Clc1cccc(N2CCN(Cc3ccc4ccccc4c3)CC2)c1 [YU105195] | Validation result of HTS active: effect of the compound in the JARID1B AlphaScreen demethylase assay (JARID1B; [3]): 8.75; Artifact signal: effect of the compound when it is incubated with bio-H3K4me2 peptide [1]: 5.28
29 | 36.06% |  | 40.22% | 4.16% | Cc1noc2c1C(c1ccc(O)c(O)c1)C1=C(CCCC1=O)N2 (stereo not drawn) [YU183529] | 
30 | 8.40% | 59.7% | 6.20% | −2.19% | COc1ccc(C2CC(c3cccnc3)Nc3nnnn32)cc1 (stereo not drawn) [YU151128] | 
31 |  | 41.2% |  |  | CN(C)CCn1c2c(c3ccccc31)CCCn1cnnc1-2.Cl [YU153907] | Validation result of HTS active: effect of the compound in the JARID1B AlphaScreen demethylase assay (JARID1B; [3]): 1.57; Artifact signal: effect of the compound when it is incubated with bio-H3K4me2 peptide [1]: −2.05
